Values after ≈ are worked out from the molar mass of the structure shown.
Assays:
Assay in all cases: in vitro antibacterial evaluation, MIC by broth dilution
Assay type in all cases: cell-based
[1] = system: Staphylococcus sp.; details: broth dilution, 18 hours at 35° C.; for MIC Staphylococcus aureus (ATCC 29213): strain ATCC 29213; for MIC Staphylococcus aureus (GC 1131): strain GC 1131; for MIC Staphylococcus aureus (GC 3051): strain GC 3051; for MIC Staphylococcus aureus (GC 3053): strain GC 3053; for MIC Staphylococcus aureus (GC 4541): strain GC 4541; for MIC Staphylococcus aureus (GC 4542): strain GC 4542; for MIC Staphylococcus aureus (GC 4544): strain GC 4544; for MIC Staphylococcus aureus (GC 4545): strain GC 4545
Procedure, shortened: (§1)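 Broth dilution per NCCLS M7-A2 in Mueller-Hinton II medium, inoculum 5×10^5 CFU/mL, antibiotic range 64-0.06 μg/mL. MIC taken as lowest concentration inhibiting growth; Gram-positive panel includes recent clinical isolates resistant to methicillin, penicillin and/or vancomycin.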

[2] = system: Enterococcus sp.; details: broth dilution, 18 hours at 35° C.
Procedure, shortened: as §1

[3] = system: Streptococcus sp.; details: broth dilution, 18 hours at 35° C.
Procedure, shortened: as §1

[4] = system: Escherichia coli; details: 18 hours at 35° C.
Procedure, shortened: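 Broth dilution MIC per NCCLS M7-A2 in Mueller-Hinton II medium, inoculum 5×10^5 CFU/mL, antibiotic range 64-0.06 μg/mL. MIC taken as lowest concentration inhibiting growth.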

CC(c1ccccc1)C1NC(=O)CNC(=O)C(CO)NC(=O)C(C(O)C2CN(c3ncccn3)C(=N)N2C2OC(CO)C(O)C(O)C2O)NC(=O)C(C(O)C2CNC(=Nc3ncccn3)N2)NC(=O)C(Cc2ccc(OC3OC(CO)C(OC4OC(CO)C(O)C(O)C4O)C(O)C3O)cc2)NC1=O (stereo not drawn) [Example 92, Cyclo[glycyl-β-methylphenylalanyl-O-(4-O-hexolpyranosylhexopyranosyl)tyrosyl-3-[2-(pyrimidin-2-ylimino)imidazolidin-4-yl]seryl-3-[3-hexopyranosyl-2-imino-1-(pyrimidin-2-yl)imidazolidin-4-yl]serylseryl]]
MIC Coagulase Negative Staphylococcus (GC 4547) [1]: >128 µg/mL
MIC Coagulase Negative Staphylococcus (GC 4548) [1]: >128 µg/mL
MIC Coagulase Negative Staphylococcus (GC 4549) [1]: >128 µg/mL
MIC Coagulase Negative Staphylococcus (GC 4551) [1]: >128 µg/mL
MIC Staphylococcus aureus-SMITH (GC 4543) [1]: >128 µg/mL
MIC Staphylococcus haemolyticus (GC 4546) [1]: >128 µg/mL
MIC Staphylococcus aureus (ATCC 29213) [1]: >128 µg/mL
MIC Staphylococcus aureus (GC 1131) [1]: >128 µg/mL
MIC Staphylococcus aureus (GC 3051) [1]: >128 µg/mL
MIC Staphylococcus aureus (GC 3053) [1]: >128 µg/mL
MIC Staphylococcus aureus (GC 4541) [1]: >128 µg/mL
MIC Staphylococcus aureus (GC 4542) [1]: >128 µg/mL
MIC Staphylococcus aureus-SMITH (GC 4543) ([1]; strain GC 4543): >128 µg/mL
MIC Staphylococcus aureus (GC 4544) [1]: >128 µg/mL
MIC Staphylococcus aureus (GC 4545) [1]: >128 µg/mL
MIC Staphylococcus haemolyticus (GC 4546) ([1]; strain GC 4546): >128 µg/mL
MIC Coagulase Negative Staphylococcus (GC 4547) ([1]; strain GC 4547): >128 µg/mL
MIC Coagulase Negative Staphylococcus (GC 4548) ([1]; strain GC 4548): >128 µg/mL
MIC Coagulase Negative Staphylococcus (GC 4549) ([1]; strain GC 4549): >128 µg/mL
MIC Coagulase Negative Staphylococcus (GC 4551) ([1]; strain GC 4551): >128 µg/mL
MIC Enterococcus avium (GC 4558) ([2]; Enterococcus avium (GC 4558)): 128 µg/mL (≈ 88.2 µM)
MIC Enterococcus faecalis (ATCC 29212) ([2]; Enterococcus faecalis (ATCC 29212)): >128 µg/mL
MIC Enterococcus faecalis (GC 4552) ([2]; Enterococcus faecalis (GC 4552)): >128 µg/mL
MIC Enterococcus faecalis (GC 4553) ([2]; Enterococcus faecalis (GC 4553)): 128 µg/mL (≈ 88.2 µM)
MIC Enterococcus faecalis (GC 4554) ([2]; Enterococcus faecalis (GC 4554)): >128 µg/mL
MIC Enterococcus faecalis (GC 6189) ([2]; Enterococcus faecalis (GC 6189)): >128 µg/mL
MIC Enterococcus faecium (GC 2243) ([2]; Enterococcus faecium (GC 2243)): >128 µg/mL
MIC Enterococcus faecium (GC 4556) ([2]; Enterococcus faecium (GC 4556)): >128 µg/mL
MIC Enterococcus faecium (GC 4557) ([2]; Enterococcus faecium (GC 4557)): 128 µg/mL (≈ 88.2 µM)
MIC Enterococcus avium (GC 4558) [2]: 128 µg/mL (≈ 88.2 µM)
MIC Enterococcus faecalis (ATCC 29212) [2]: >128 µg/mL
MIC Enterococcus faecalis (GC 2242) [2]: >128 µg/mL
MIC Enterococcus faecalis (GC 2691) [2]: >128 µg/mL
MIC Enterococcus faecalis (GC 3059) [2]: >128 µg/mL
MIC Enterococcus faecalis (GC 4552) [2]: >128 µg/mL
MIC Enterococcus faecalis (GC 4553) [2]: 128 µg/mL (≈ 88.2 µM)
MIC Enterococcus faecalis (GC 4554) [2]: >128 µg/mL
MIC Enterococcus faecalis (GC 6189) [2]: >128 µg/mL
MIC Enterococcus faecium (GC 2243) [2]: >128 µg/mL
MIC Enterococcus faecium (GC 4556) [2]: >128 µg/mL
MIC Enterococcus faecium (GC 4557) [2]: 128 µg/mL (≈ 88.2 µM)
MIC Enterococcus faecalis (GC 2242) ([2]; strain GC 2242): >128 µg/mL
MIC Enterococcus faecalis (GC 2691) ([2]; strain GC 2691): >128 µg/mL
MIC Enterococcus faecalis (GC 3059) ([2]; strain GC 3059): >128 µg/mL
MIC Streptococcus agalactiae (GC 4564) [3]: >128 µg/mL
MIC Streptococcus pneumoniae (ATCC 6301) [3]: 128 µg/mL (≈ 88.2 µM)
MIC Streptococcus pneumoniae (GC 1894) [3]: 128 µg/mL (≈ 88.2 µM)
MIC Streptococcus pneumoniae (GC 4565) [3]: 128 µg/mL (≈ 88.2 µM)
MIC Streptococcus pyogenes (GC 4563) [3]: >128 µg/mL
MIC Streptococcus pneumoniae (ATCC 6301) ([3]; strain ATCC 6301): 128 µg/mL (≈ 88.2 µM)
MIC Streptococcus pneumoniae (GC 1894) ([3]; strain GC 1894): 128 µg/mL (≈ 88.2 µM)
MIC Streptococcus pyogenes (GC 4563) ([3]; strain GC 4563): >128 µg/mL
MIC Streptococcus agalactiae (GC 4564) ([3]; strain GC 4564): >128 µg/mL
MIC Streptococcus pneumoniae (GC 4565) ([3]; strain GC 4565): 128 µg/mL (≈ 88.2 µM)
MIC Escherichia coli (ATCC 25922) [4]: >128 µg/mL
MIC Escherichia coli (GC 4559) [4]: >128 µg/mL
MIC Escherichia coli (GC 4560) [4]: >128 µg/mL

CC(c1ccccc1)C1NC(=O)CNC(=O)C(CO)NC(=O)C(CC2CNC(=N)N2C2OC(CO)C(O)C(O)C2O)NC(=O)C(CC2CNC(=N)N2)NC(=O)C(Cc2ccc(OC3OC(CO)C(OC4OC5COC(c6ccc(OCc7ccccc7)cc6)OC5C(O)C4O)C(O)C3O)cc2)NC1=O (centres unmarked) [Example 191]
MIC Staphylococcus aureus (GC 1131) ([1]; inoculum 5×10^5 CFU/mL): 8 µg/mL (≈ 5.49 µM)
MIC Staphylococcus aureus (ATCC 29213) [1]: 4 µg/mL (≈ 2.74 µM)
MIC Staphylococcus aureus (GC 1131) [1]: 8 µg/mL (≈ 5.49 µM)
MIC Staphylococcus aureus (GC 3051) [1]: 8 µg/mL (≈ 5.49 µM)
MIC Staphylococcus aureus (GC 3053) [1]: 8 µg/mL (≈ 5.49 µM)
MIC Staphylococcus aureus (GC 4541) [1]: 4 µg/mL (≈ 2.74 µM)
MIC Staphylococcus aureus (GC 4542) [1]: 4 µg/mL (≈ 2.74 µM)
MIC Staphylococcus aureus-SMITH (GC 4543) ([1]; strain GC 4543): 4 µg/mL (≈ 2.74 µM)
MIC Staphylococcus aureus (GC 4544) [1]: 8 µg/mL (≈ 5.49 µM)
MIC Staphylococcus aureus (GC 4545) [1]: 4 µg/mL (≈ 2.74 µM)
MIC Staphylococcus haemolyticus (GC 4546) ([1]; strain GC 4546): 4 µg/mL (≈ 2.74 µM)
MIC Coagulase Negative Staphylococcus (GC 4547) ([1]; strain GC 4547): 8 µg/mL (≈ 5.49 µM)
MIC Coagulase Negative Staphylococcus (GC 4548) ([1]; strain GC 4548): 4 µg/mL (≈ 2.74 µM)
MIC Coagulase Negative Staphylococcus (GC 4549) ([1]; strain GC 4549): 4 µg/mL (≈ 2.74 µM)
MIC Coagulase Negative Staphylococcus (GC 4551) ([1]; strain GC 4551): 4 µg/mL (≈ 2.74 µM)
MIC Coagulase Negative Staphylococcus (GC 6257) ([1]; strain GC 6257): 4 µg/mL (≈ 2.74 µM)
MIC Enterococcus avium (GC 4558) [2]: 4 µg/mL (≈ 2.74 µM)
MIC Enterococcus faecalis (ATCC 29212) [2]: 16 µg/mL (≈ 11 µM)
MIC Enterococcus faecalis (GC 2242) [2]: 8 µg/mL (≈ 5.49 µM)
MIC Enterococcus faecalis (GC 2691) [2]: 8 µg/mL (≈ 5.49 µM)
MIC Enterococcus faecalis (GC 3059) [2]: 8 µg/mL (≈ 5.49 µM)
MIC Enterococcus faecalis (GC 4552) [2]: 16 µg/mL (≈ 11 µM)
MIC Enterococcus faecalis (GC 4553) [2]: 8 µg/mL (≈ 5.49 µM)
MIC Enterococcus faecalis (GC 4554) [2]: 16 µg/mL (≈ 11 µM)
MIC Enterococcus faecalis (GC 6189) [2]: 8 µg/mL (≈ 5.49 µM)
MIC Enterococcus faecium (GC 2243) [2]: 8 µg/mL (≈ 5.49 µM)
MIC Enterococcus faecium (GC 4556) [2]: 8 µg/mL (≈ 5.49 µM)
MIC Enterococcus faecium (GC 4557) [2]: 4 µg/mL (≈ 2.74 µM)
MIC Enterococcus faecalis (ATCC 29212) ([2]; inoculum 5×10^5 CFU/mL, strain ATCC 29212): 16 µg/mL (≈ 11 µM)
MIC Enterococcus faecalis (GC 2242) ([2]; inoculum 5×10^5 CFU/mL, strain GC 2242): 8 µg/mL (≈ 5.49 µM)
MIC Enterococcus faecium (GC 2243) ([2]; inoculum 5×10^5 CFU/mL, strain GC 2243): 8 µg/mL (≈ 5.49 µM)
MIC Enterococcus faecalis (GC 2691) ([2]; inoculum 5×10^5 CFU/mL, strain GC 2691): 8 µg/mL (≈ 5.49 µM)
MIC Enterococcus faecalis (GC 3059) ([2]; inoculum 5×10^5 CFU/mL, strain GC 3059): 8 µg/mL (≈ 5.49 µM)
MIC Enterococcus faecalis (GC 4552) ([2]; inoculum 5×10^5 CFU/mL, strain GC 4552): 16 µg/mL (≈ 11 µM)
MIC Enterococcus faecalis (GC 4553) ([2]; inoculum 5×10^5 CFU/mL, strain GC 4553): 8 µg/mL (≈ 5.49 µM)
MIC Enterococcus faecalis (GC 4554) ([2]; inoculum 5×10^5 CFU/mL, strain GC 4554): 16 µg/mL (≈ 11 µM)
MIC Enterococcus faecium (GC 4556) ([2]; inoculum 5×10^5 CFU/mL, strain GC 4556): 8 µg/mL (≈ 5.49 µM)
MIC Enterococcus faecium (GC 4557) ([2]; inoculum 5×10^5 CFU/mL, strain GC 4557): 4 µg/mL (≈ 2.74 µM)
MIC Enterococcus avium (GC 4558) ([2]; inoculum 5×10^5 CFU/mL, strain GC 4558): 4 µg/mL (≈ 2.74 µM)
MIC Enterococcus faecalis (GC 6189) ([2]; inoculum 5×10^5 CFU/mL, strain GC 6189): 8 µg/mL (≈ 5.49 µM)
MIC Streptococcus agalactiae (GC 4564) [3]: 2 µg/mL (≈ 1.37 µM)
MIC Streptococcus pneumoniae (ATCC 6301) [3]: 1 µg/mL (≈ 0.686 µM)
MIC Streptococcus pneumoniae (GC 1894) [3]: 0.25 µg/mL (≈ 0.172 µM)
MIC Streptococcus pneumoniae (GC 4565) [3]: 2 µg/mL (≈ 1.37 µM)
MIC Streptococcus pyogenes (GC 4563) [3]: 2 µg/mL (≈ 1.37 µM)
MIC Streptococcus pneumoniae (ATCC 6301) ([3]; inoculum 5×10^5 CFU/mL, strain ATCC 6301): 1 µg/mL (≈ 0.686 µM)
MIC Streptococcus pneumoniae (GC 1894) ([3]; inoculum 5×10^5 CFU/mL, strain GC 1894): 0.25 µg/mL (≈ 0.172 µM)
MIC Streptococcus pyogenes (GC 4563) ([3]; inoculum 5×10^5 CFU/mL, strain GC 4563): 2 µg/mL (≈ 1.37 µM)
MIC Streptococcus agalactiae (GC 4564) ([3]; inoculum 5×10^5 CFU/mL, strain GC 4564): 2 µg/mL (≈ 1.37 µM)
MIC Streptococcus pneumoniae (GC 4565) ([3]; inoculum 5×10^5 CFU/mL, strain GC 4565): 2 µg/mL (≈ 1.37 µM)
MIC Escherichia coli (ATCC 25922) [4]: >64 µg/mL
MIC Escherichia coli (GC 4559) [4]: 64 µg/mL (≈ 43.9 µM)
MIC Escherichia coli (GC 4560) [4]: 8 µg/mL (≈ 5.49 µM)
